Assays:
weeds [1] = experiment: Glasshouse weed control, HST inhibitors alone and with A22, pre-emergence; format: in vivo; settings: 336 h, 14 DAT; for pest or weed control at 15.625 g/ha: HST inhibitor rate 15.625 g/ha; for pest or weed control at 62.5 g/ha: HST inhibitor rate 62.5 g/ha; for pest or weed control at 250 g/ha: HST inhibitor rate 250 g/ha
Experimental: (§1) In a further test, the results of which are depicted in tables 18 and 19, weed seeds are planted out in trays containing 50% peat/50% John Innes no. 3 soil and grown in the glass house at 24-27 C day; 18-21 C night and approximately a 15 h photoperiod. Humidity is ˜65% and light levels at bench level are up to 2 mmol/m^2. Again all spray chemicals are dissolved in 0.2% X77 surfactant and sprayed from a boom on a track sprayer moving at 2 mph with the nozzle set about 2 inches above the plant tops. The spray volume is […]. Sprays are carried out both pre-emergence and post-emergence over small plants at about 7-12 d post-emergence. Plants are assessed at 14 DAT with herbicidal damage scored on a scale from 0 to 100%. The HPPD inhibiting herbicide is compound A22 (4-hydroxy-3-[[2-(2-methoxyethoxy)methyl]-6-(trifluoromethyl)-3-pyridinylicarbonyl]-bicyclo[3.2.1]oct-3-en-2-one) which is sprayed at 2 g/ha both alone and in mixture with various HST herbicides. Results and spray rates are depicted in Tables 18 and 19. Again the Colby formula has been used to calculate synergy scores observed following treatment with the mixture based on the results obtained with the single components alone. Positive synergy is observed between the HPPD herbicide and a wide variety of HST inhibitor herbicides applied both pre and postemergence across a variety of weeds.

Arabidopsis HST = target: T1, Arabidopsis HST (Arabidopsis thaliana, UniProt Q1ACB3); experiment: HST total extraction (non TLC) assay, recombinant Arabidopsis HST from insect cells; format: biochemical
T1 construct: GST (factor Xa cleavage site) (N); made in house; host or cells: Sf9 insect cells (baculovirus, pAcG3X), membrane fraction
T1 sequence (Q1ACB3 70-386): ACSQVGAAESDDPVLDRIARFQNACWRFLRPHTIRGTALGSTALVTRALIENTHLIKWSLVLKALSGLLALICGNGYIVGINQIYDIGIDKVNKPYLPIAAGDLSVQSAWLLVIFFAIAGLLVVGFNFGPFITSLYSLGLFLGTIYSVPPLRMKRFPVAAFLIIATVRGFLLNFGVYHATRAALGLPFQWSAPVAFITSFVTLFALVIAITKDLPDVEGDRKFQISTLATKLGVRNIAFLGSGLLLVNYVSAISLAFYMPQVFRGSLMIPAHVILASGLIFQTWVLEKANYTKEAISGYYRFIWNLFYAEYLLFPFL

weeds [2] = experiment: Glasshouse weed control, HST inhibitors alone and with A22, post-emergence; format: in vivo; settings: 336 h, 14 DAT, single replicate, read-out: % control score, Obs; for pest or weed control at 15.625 g/ha: 15.625 g/ha alone; for pest or weed control at 62.5 g/ha: 62.5 g/ha alone; for pest or weed control at 250 g/ha: 250 g/ha alone
Experimental: as §1

[3] = BRAPL, read-out: BRAPL Obs, % control score
[4] = PANMI, read-out: PANMI Obs, % control score
[5] = SIDSP, read-out: SIDSP Obs, % control score
[6] = Digitaria sanguinalis, DIGSA, read-out: DIGSA Obs, % control score
[7] = Echinochloa crus-galli, ECHCG, read-out: ECHCG Obs, % control score
[8] = Setaria faberi, SETFA, read-out: SETFA Obs, % control score

Estimated IC50 (ppm) (Arabidopsis HST)	SMILES	pest or weed control at 15.625 g/ha (weeds [1]; [3])	pest or weed control at 62.5 g/ha (weeds [1]; [3])	pest or weed control at 250 g/ha (weeds [1]; [3])	pest or weed control at 15.625 g/ha (weeds [1]; [4])	pest or weed control at 62.5 g/ha (weeds [1]; [4])	pest or weed control at 250 g/ha (weeds [1]; [4])	pest or weed control at 15.625 g/ha (weeds [1]; [5])	pest or weed control at 62.5 g/ha (weeds [1]; [5])	pest or weed control at 250 g/ha (weeds [1]; [5])	pest or weed control at 15.625 g/ha (weeds [1]; [6])	pest or weed control at 62.5 g/ha (weeds [1]; [6])	pest or weed control at 250 g/ha (weeds [1]; [6])	pest or weed control at 15.625 g/ha (weeds [1]; [7])	pest or weed control at 62.5 g/ha (weeds [1]; [7])	pest or weed control at 250 g/ha (weeds [1]; [7])	pest or weed control at 15.625 g/ha (weeds [1]; [8])	pest or weed control at 62.5 g/ha (weeds [1]; [8])	pest or weed control at 250 g/ha (weeds [1]; [8])	pest or weed control at 15.625 g/ha (weeds [2]; BRAPL)	other results
42 ppm	O=S1(=O)C(c2ccc(Br)cc2C(F)(F)F)=C(O)c2nccnc2N1CC(F)F [Compound 3.5]	0%	0%	0%	0%	0%	0%	0%	0%	2%	0%	0%	0%	0%	0%	0%	0%	0%	0%	2%	pest or weed control at 62.5 g/ha (weeds [2]; BRAPL): 30%; pest or weed control at 250 g/ha (weeds [2]; BRAPL): 65%; pest or weed control at 15.625 g/ha (weeds [2]; PANMI): 5%; pest or weed control at 62.5 g/ha (weeds [2]; PANMI): 15%; pest or weed control at 250 g/ha (weeds [2]; PANMI): 70%; pest or weed control at 15.625 g/ha (weeds [2]; SIDSP): 2%; pest or weed control at 62.5 g/ha (weeds [2]; SIDSP): 10%; pest or weed control at 250 g/ha (weeds [2]; SIDSP): 10%; pest or weed control at 15.625 g/ha (weeds [2]; Digitaria sanguinalis, DIGSA): 0%; pest or weed control at 62.5 g/ha (weeds [2]; Digitaria sanguinalis, DIGSA): 0%; pest or weed control at 250 g/ha (weeds [2]; Digitaria sanguinalis, DIGSA): 5%; pest or weed control at 15.625 g/ha (weeds [2]; Echinochloa crus-galli, ECHCG): 5%; pest or weed control at 62.5 g/ha (weeds [2]; Echinochloa crus-galli, ECHCG): 15%; pest or weed control at 250 g/ha (weeds [2]; Echinochloa crus-galli, ECHCG): 30%; pest or weed control at 15.625 g/ha (weeds [2]; Setaria faberi, SETFA): 2%; pest or weed control at 62.5 g/ha (weeds [2]; Setaria faberi, SETFA): 10%; pest or weed control at 250 g/ha (weeds [2]; Setaria faberi, SETFA): 40%
64 ppm	O=c1c(-c2c(F)ccc(Cl)c2Cl)c(O)c2nccnc2n1CC(F)F [Compound 2.21]	0%	2%	5%	0%	0%	0%	0%	0%	1%	0%	0%	0%	0%	0%	5%	0%	0%	2%	5%	pest or weed control at 62.5 g/ha (weeds [2]; BRAPL): 30%; pest or weed control at 250 g/ha (weeds [2]; BRAPL): 80%; pest or weed control at 15.625 g/ha (weeds [2]; PANMI): 10%; pest or weed control at 62.5 g/ha (weeds [2]; PANMI): 30%; pest or weed control at 250 g/ha (weeds [2]; PANMI): 70%; pest or weed control at 15.625 g/ha (weeds [2]; SIDSP): 5%; pest or weed control at 62.5 g/ha (weeds [2]; SIDSP): 20%; pest or weed control at 250 g/ha (weeds [2]; SIDSP): 40%; pest or weed control at 15.625 g/ha (weeds [2]; Digitaria sanguinalis, DIGSA): 0%; pest or weed control at 62.5 g/ha (weeds [2]; Digitaria sanguinalis, DIGSA): 10%; pest or weed control at 250 g/ha (weeds [2]; Digitaria sanguinalis, DIGSA): 20%; pest or weed control at 15.625 g/ha (weeds [2]; Echinochloa crus-galli, ECHCG): 0%; pest or weed control at 62.5 g/ha (weeds [2]; Echinochloa crus-galli, ECHCG): 10%; pest or weed control at 250 g/ha (weeds [2]; Echinochloa crus-galli, ECHCG): 40%; pest or weed control at 15.625 g/ha (weeds [2]; Setaria faberi, SETFA): 2%; pest or weed control at 62.5 g/ha (weeds [2]; Setaria faberi, SETFA): 20%; pest or weed control at 250 g/ha (weeds [2]; Setaria faberi, SETFA): 60%

— US20110173718A1, “HERBICIDE TOLERANT PLANTS” (SYNGENTA CROP PROTECTION, INC., priority 2008, published 2011)
